Test results as given in ChEMBL document CHEMBL4177727, “Synthesis and biological evaluation of 1-amino isochromans from 2-bromoethyl benzaldehyde and amines in acid medium” (2018).

Tests used:
Assay type in all cases: functional
Conditions in all cases: read-out: IZ
Pseudomonas aeruginosa = assay: Antibacterial activity against Pseudomonas aeruginosa MTCC 424 at 1 ug/ml under overnight incubation condition by paper disc method
Escherichia coli = assay: Antibacterial activity against Escherichia coli MTCC 443 at 1 ug/ml under overnight incubation condition by paper disc method
Staphylococcus aureus = assay: Antibacterial activity against Staphylococcus aureus MTCC 96 at 1 ug/ml under overnight incubation condition by paper disc method
Bacillus subtilis = assay: Antibacterial activity against Bacillus subtilis MTCC 441 at 1 ug/ml under overnight incubation condition by paper disc method

Compound	zone of inhibition at 1 µg/mL (Pseudomonas aeruginosa)	zone of inhibition at 1 µg/mL (Escherichia coli)	zone of inhibition at 1 µg/mL (Staphylococcus aureus)	zone of inhibition at 1 µg/mL (Bacillus subtilis)
FC(F)(F)c1ccc2nc(NC3OCCc4ccccc43)sc2c1 (stereo not given)	2.5 mm	2.5 mm	2.5 mm	2.5 mm
Cc1cccc(NC2OCCc3ccccc32)n1 (stereo not given)	6 mm	3 mm	4.5 mm	4 mm
Brc1ccc2nc(NC3OCCc4ccccc43)sc2c1 (stereo not given)	5 mm	2.5 mm	5 mm	2.5 mm
Ic1ccc(NC2OCCc3ccccc32)nc1 (stereo not given)	4.5 mm	3.5 mm	3 mm	6 mm
Cc1nc(NC2OCCc3ccccc32)sc1-c1ccccc1 (stereo not given)	3 mm	2.5 mm	2.5 mm	2.5 mm
Cc1cc(Br)cnc1NCCc1ccccc1C=O	5 mm	3.5 mm	4 mm	3 mm
O=[N+]([O-])c1ccc(NC2OCCc3ccccc32)cc1 (stereo not given)	4 mm	4.5 mm	3 mm	5 mm
Cc1ccc2nc(NC3OCCc4ccccc43)sc2c1 (stereo not given)	2.5 mm	2.5 mm	2.5 mm	2.5 mm
COc1cccc2sc(NC3OCCc4ccccc43)nc12 (stereo not given)	4 mm	3 mm	2.5 mm	3 mm
Fc1nc(NC2OCCc3ccccc32)sc1F (stereo not given)	4 mm	3 mm	3 mm	3 mm
CCOc1ccc2nc(NC3OCCc4ccccc43)sc2c1 (stereo not given)	5 mm	6.5 mm	6 mm	7.5 mm
c1ccc2c(c1)CCOC2Nc1nc2ccccc2s1 (stereo not given)	3 mm	2.5 mm	3 mm	2.5 mm
Fc1ccc(-c2cnc(NC3OCCc4ccccc43)s2)cc1 (stereo not given)	5 mm	6 mm	3 mm	2.5 mm
Fc1ccc2nc(NC3OCCc4ccccc43)sc2c1 (stereo not given)	3 mm	4 mm	2.5 mm	4.5 mm
CC1COc2c(N3CCN(C)CC3)c(F)cc3c(=O)c(C(=O)O)cn1c23 (stereo not given) [OFLOXACIN]		11 mm		10 mm
CCn1cc(C(=O)O)c(=O)c2cc(F)c(N3CCNCC3)cc21 [NORFLOXACIN]	9.5 mm		7 mm	
